Assay results taken from patent US20110251135A1, “INHIBITORS OF PERITONEAL SEEDING OF CANCER CELLS” (University of Utah Research Foundation, priority 2008, published 2011).
Where “and” joins values, the source holds several entries; their conditions need not be identical. Equal entries are not always repeated. Entries after “also recorded” stand apart in the source; their conditions may differ.

Tests used:
[1] = system: adherent HT-29 cells; experiment: Annexin V-FITC apoptosis assay, adherent cells; assay type: cell-based, human
Description: FIG. 3 is a group of graphs that show NF-κB inhibitors cause apoptosis of colon cancer cells. […] The data points represent the average percent of annexin V-positive, propidium iodide-negative cells (of the total cells counted) from triplicate experiments. The error bars represent the standard error of the means. […] The results shown are a graphic representation of individual flow cytometry results expressed as the percentage of cells that were annexin V-positive of those that excluded propidium iodide. […] An immunoblot of the lysates for cleaved PARP was performed. Each lane represents equal total protein concentrations. […] The cells were allowed to adhere to plastic dishes for 1 hour after which they were washed gently in PBS and stained with crystal violet. The crystal violet stained cells were solubilized in deoxycholate and the absorbance detected in a spectrophotometer at 590 nm. The adherent cells were expressed as a fraction of the controls. Each data point represents the average of triplicate experiments and the error bars the standard errors of the means.
The data points represent the means of triplicate experiments and the error bars the standard errors of the means. […] The percent of apoptotic cells was then determined by the annexin V assay. […] The results shown are typical of two separate experiments. […] Immunoblots were performed for c-IAP-2, TRAF-1, TRAF-2, and FLIP. All lanes contain equal total protein.
Single cell suspensions were plated at 100,000 cells per well in 24-well plates in media containing DMSO, BAY 11-7082, BAY 11-7085, or MG-132 for 8-24 hours in an incubator. Alternatively, DMSO, BAY 11-7082, BAY 11-7085, or MG-132 were added to cells that were confluent and adherent for several days. The nonadherent cells were aspirated off with the media and spun for 3 minutes at 2,000 rpm in 15 mL polypropylene tubes. The adherent cells were washed twice with PBS, dispersed in trypsin, and spun down for 3 minutes at 2,000 rpm in 15 mL polypropylene tubes. The nonadherent and adherent cells were resuspended in 1× binding buffer (10 mM HEPES/NaOH, pH 7.4, 140 mM NaCl, and 2.5 mM CaCl2) to a final concentration of 10^6 cells/mL. 100 μL of the cell solution were transferred to a 5 mL culture tube and incubated with 5 μL of annexin V-FITC-conjugated monoclonal antibody (Pharmingen) and 10 μl, of propidium iodide (from a 50 μg/mL stock solution made in PBS) in the dark at 25° C. for 15 minutes. 400 μL of binding buffer was added to each tube and the cells were analyzed by flow cytometry immediately. The percent of apoptosis was determined as the percent of annexin V-positive, propidium iodide-negative cells of the total cells counted.

[2] = system: 293-COX-2 cells; experiment: Apoptosis of 293-COX-2 cells with or without ponasterone induction of COX-2; assay type: cell-based; settings: 8 hours of exposure
Procedure: The transiently suspended cells were lysed and allowed to bind to DNA oligonucleotides, containing the NF-κB consensus binding site, that were immobilized to 96-well plates. NF-κB protein bound to the oligonucleotides was detected by an antibody to the p65 subunit that only recognized p65 that is bound to DNA. The positive control was HeLa cells that were stimulated with TNFα. A control was performed using excess free NF-κB oligonucleotides (Competitor). […] NF-κB binding activity was determined by the TransAM assay as in FIG. 5A. […] The data shown represent typical results of three separate experiments. […] An immunoblot for COX-2 was performed.
DLD-1, HCT-116, and HT-29 colon cancer cell lines were obtained from the ATCC collection and were cultured in Dulbecco's Modification of Eagle's Medium (DMEM) supplemented with 10% fetal bovine serum, glutamine, penicillin, and streptomycin. […]
Single cell suspensions were plated at 100,000 cells per well in 24-well plates in media containing DMSO, BAY 11-7082, BAY 11-7085, or MG-132 for 8-24 hours in an incubator. […] 400 μL of binding buffer was added to each tube and the cells were analyzed by flow cytometry immediately. The percent of apoptosis was determined as the percent of annexin V-positive, propidium iodide-negative cells of the total cells counted. […]

[3] = system: HT-29 cells; experiment: Intraabdominal seeding model, intraperitoneal injection of colon cancer cells into athymic mice (21 days); assay type: in vivo, mouse; settings: HT-29 IP in athymic mice, BAY 11-7085 (1 mg/kg) IP 24 hours earlier, then twice weekly, n = 6
Description: FIG. 6 is a group of photographs showing an intraabdominal seeding model. FIGS. 6A, B, C show tumor implants of the liver of three athymic mice 21 days after receiving intraperitoneal injections of HT-29 cells. The mice were pretreated and treated for a total of 21 days with DMSO twice weekly. […] The mouse was pretreated and treated for a total of 21 days with DMSO twice weekly. FIG. 6E is a micrograph showing tumor invasion through the liver capsule. This section was obtained from the tumor implant from the mouse in FIG. 6A. […] FIG. 6G, (liver), FIG. 6H, (abdominal wall), and FIG. 6I, (intestinal) show tumor implants in three athymic mice 21 days after receiving intraabdominal injections of HCT-116 cells. All of the mice were treated with 5 mg/kg of BAY 11-7085 twice weekly.
HT-29 and HCT-116 cells were harvested in 0.25% trypsin-PBS-EDTA, washed once in media and PBS, and resuspended in PBS at 1 million cells per 200 μL. […] Subcutaneous tumor sizes were determined by measuring the length and width with calipers. […]
During colorectal cancer surgery, seeding of the peritoneal cavity by tumor cells with tumor cell implantation of the peritoneal surfaces can occur. Seeding results from the transient suspension of cancer cells, through a loss of adhesion either naturally ro because of surgical displacement, followed by readhesion to other tissues. […]

Compound: CC(C)(C)c1ccc(S(=O)(=O)/C=C/C#N)cc1 [BAY 11-7085, (2E)-3-[4-(tertiarybutylphenyl)sulfonyl]-2-propenenitrile]
- apoptotic cells among cells that remained adherent ([1]; HT-29 treated with increasing concentrations of BAY 11-7085, adherent fraction): only a minority of the adherent cells was apoptotic
- apoptotic cells among cells that became nonadherent ([1]; HT-29 treated with increasing concentrations of BAY 11-7085, nonadherent fraction): the majority of nonadherent cells were apoptotic; also recorded: predominantly apoptotic
- level of apoptosis (annexin V-positive, propidium iodide-negative cells) ([1]; adherent HT-29, 24 hours, BAY compounds at doses up to 20, MG-132 20 μM): relatively greater for MG-132 than BAY 11-7085; also recorded: caused an increase in the level of apoptosis
- apoptosis of adherent HT-29 cell monolayers ([1]; even the highest doses (10-100 μM), compared with transiently suspended cells): only a relatively small degree of apoptosis
- apoptosis ([2]; ponasterone-induced 293-COX-2 cells (1 μg/mL, 48 hours)): marked increase in BAY 11-7085-induced apoptosis
- apoptosis ([2]; uninduced 293-COX-2 cells): no increase in apoptosis
- Liver Metastases (mice with metastases/n) [3]: none of the 6 and 0/6
- Peritoneal Metastases (mice with metastases/n) [3]: 2 of 6 and 2/6
